From patent US20090311217A1, “3-SUBSTITUTED-1H-INDOLE COMPOUNDS, THEIR USE AS MTOR KINASE AND PI3 KINASE INHIBITORS, AND THEIR SYNTHESES” (priority 2008, published 2009)
pIC50: −log10 of the molar value. Read-outs that look alike come from different tables or passages of the source.

Columns and labels:
Assay type in all cases: biochemical
[1] = target: PI3K-alpha (Homo sapiens, UniProt P42336); assay: PI3K-alpha fluorescence polarization assay; conditions: read-out: PI3Kα Avg. IC50
[2] = target: PI3K-gamma (Homo sapiens, UniProt P48736); assay: PI3K-gamma fluorescence polarization assay
Method in brief: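 Inhibition is derived from a polarization signal: after a 1 h, 25° C kinase step (25 μM ATP, 2.5 μM diC8-PIP2, pH 7), EDTA stops the reaction and the GRP1 PH domain/TMR-IP4 pair reports lipid product.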

[3] = target: T1, human TOR (Homo sapiens, UniProt P42345); assay: mTOR enzyme assay (DELFIA, His6-S6K substrate); conditions: read-out: mTOR Kinase Avg. IC50
T1 construct: FLAG

Chain of PI3K-alpha (P42336 whole entry, species assumed): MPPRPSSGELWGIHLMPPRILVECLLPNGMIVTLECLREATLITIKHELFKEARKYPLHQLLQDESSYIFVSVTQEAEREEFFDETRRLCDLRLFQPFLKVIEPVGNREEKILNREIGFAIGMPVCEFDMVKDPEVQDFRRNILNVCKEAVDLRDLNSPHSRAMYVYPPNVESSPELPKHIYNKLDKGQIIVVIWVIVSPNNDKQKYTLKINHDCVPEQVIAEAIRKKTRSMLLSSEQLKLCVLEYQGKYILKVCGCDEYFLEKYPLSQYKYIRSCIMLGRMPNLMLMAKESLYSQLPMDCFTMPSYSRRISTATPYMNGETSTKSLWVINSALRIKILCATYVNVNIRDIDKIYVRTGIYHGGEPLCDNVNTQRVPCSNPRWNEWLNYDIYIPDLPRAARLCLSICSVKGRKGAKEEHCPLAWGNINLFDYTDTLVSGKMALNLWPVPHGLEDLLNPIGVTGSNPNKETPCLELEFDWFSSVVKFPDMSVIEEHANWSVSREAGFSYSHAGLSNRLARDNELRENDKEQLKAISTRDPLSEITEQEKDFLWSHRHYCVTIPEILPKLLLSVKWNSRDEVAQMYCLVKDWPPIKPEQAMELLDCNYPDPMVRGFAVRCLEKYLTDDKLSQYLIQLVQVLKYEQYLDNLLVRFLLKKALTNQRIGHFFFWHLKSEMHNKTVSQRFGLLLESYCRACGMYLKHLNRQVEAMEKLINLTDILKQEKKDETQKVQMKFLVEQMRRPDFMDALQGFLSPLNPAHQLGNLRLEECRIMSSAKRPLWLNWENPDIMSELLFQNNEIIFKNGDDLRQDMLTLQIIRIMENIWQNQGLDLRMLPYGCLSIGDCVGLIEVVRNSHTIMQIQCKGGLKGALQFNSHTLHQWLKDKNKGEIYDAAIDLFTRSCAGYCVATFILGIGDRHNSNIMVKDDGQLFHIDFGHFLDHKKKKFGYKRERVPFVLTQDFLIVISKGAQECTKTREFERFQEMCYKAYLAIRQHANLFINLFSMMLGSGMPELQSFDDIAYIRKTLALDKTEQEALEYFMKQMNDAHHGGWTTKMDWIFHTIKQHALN
Chain of PI3K-alpha (P27986 whole entry partner, species assumed): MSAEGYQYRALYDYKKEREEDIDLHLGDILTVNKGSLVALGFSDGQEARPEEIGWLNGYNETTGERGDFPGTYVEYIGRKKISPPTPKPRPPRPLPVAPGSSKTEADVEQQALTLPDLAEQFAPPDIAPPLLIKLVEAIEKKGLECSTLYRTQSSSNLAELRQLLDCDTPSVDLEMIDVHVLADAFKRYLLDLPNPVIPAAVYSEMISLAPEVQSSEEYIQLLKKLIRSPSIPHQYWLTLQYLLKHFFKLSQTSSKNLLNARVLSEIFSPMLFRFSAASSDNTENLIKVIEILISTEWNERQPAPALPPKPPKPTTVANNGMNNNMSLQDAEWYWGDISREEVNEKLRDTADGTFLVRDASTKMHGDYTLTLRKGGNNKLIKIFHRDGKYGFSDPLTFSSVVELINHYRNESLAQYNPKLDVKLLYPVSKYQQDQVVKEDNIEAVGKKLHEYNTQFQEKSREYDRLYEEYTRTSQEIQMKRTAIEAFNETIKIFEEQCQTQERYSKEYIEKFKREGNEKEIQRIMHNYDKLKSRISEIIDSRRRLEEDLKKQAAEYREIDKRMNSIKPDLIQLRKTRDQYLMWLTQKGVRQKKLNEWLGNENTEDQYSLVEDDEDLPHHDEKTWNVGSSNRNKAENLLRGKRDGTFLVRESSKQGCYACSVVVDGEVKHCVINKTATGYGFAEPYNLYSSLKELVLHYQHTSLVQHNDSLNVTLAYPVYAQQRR
Chain of PI3K-gamma (P48736 whole entry, species assumed, the tested form may be a part): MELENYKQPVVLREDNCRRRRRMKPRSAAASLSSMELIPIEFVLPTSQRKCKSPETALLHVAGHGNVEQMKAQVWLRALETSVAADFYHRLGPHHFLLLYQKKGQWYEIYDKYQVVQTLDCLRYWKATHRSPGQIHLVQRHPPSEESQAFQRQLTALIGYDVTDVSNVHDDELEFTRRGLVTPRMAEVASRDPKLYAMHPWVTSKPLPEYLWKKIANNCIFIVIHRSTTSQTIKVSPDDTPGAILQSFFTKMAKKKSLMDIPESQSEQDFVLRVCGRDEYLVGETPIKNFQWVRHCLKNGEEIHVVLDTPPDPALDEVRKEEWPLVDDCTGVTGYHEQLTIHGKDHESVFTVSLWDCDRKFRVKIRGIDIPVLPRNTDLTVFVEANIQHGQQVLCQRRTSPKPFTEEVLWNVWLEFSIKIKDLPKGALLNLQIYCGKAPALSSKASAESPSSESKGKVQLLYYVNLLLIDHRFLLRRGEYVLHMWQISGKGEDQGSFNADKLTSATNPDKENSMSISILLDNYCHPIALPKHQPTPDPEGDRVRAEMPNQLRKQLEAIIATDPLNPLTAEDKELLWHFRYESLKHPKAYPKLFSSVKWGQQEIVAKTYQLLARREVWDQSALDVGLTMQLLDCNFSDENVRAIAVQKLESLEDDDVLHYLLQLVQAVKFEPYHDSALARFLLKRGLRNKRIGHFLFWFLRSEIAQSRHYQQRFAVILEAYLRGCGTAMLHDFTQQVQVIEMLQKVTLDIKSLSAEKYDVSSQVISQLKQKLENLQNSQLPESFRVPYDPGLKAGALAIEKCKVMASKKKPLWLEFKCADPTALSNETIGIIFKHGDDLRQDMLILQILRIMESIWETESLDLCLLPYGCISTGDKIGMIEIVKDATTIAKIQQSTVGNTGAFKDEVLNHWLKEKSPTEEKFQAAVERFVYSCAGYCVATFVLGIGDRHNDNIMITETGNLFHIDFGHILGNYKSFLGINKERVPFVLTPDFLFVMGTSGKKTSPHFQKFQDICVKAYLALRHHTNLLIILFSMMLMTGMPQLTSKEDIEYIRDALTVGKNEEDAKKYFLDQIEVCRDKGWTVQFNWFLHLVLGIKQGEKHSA

pIC50 [1]	pIC50 ([2]; PI3Kγ Avg. IC50)	pIC50 [3]	pIC50 ([2]; read-out: PI3Kγ Avg. IC50)	SMILES
8.72	6.61	7.24	–	COc1ccc2c(c1)c(/C=C1\Oc3ccc(NC(=O)Nc4cccnc4)cc3C1=O)c(C)n2CCN1CCN(C)CC1 [Compound 617, 1-[(2Z)-2-({5-methoxy-2-methyl-1-[2-(4-methylpiperazin-1-yl)ethyl]-1H-indol-3-yl}methylidene)-3-oxo-2,3-dihydro-1-benzofuran-5-yl]-3-pyridin-3-ylurea]
8.46	–	6.65	6.45	CNC(=O)Nc1ccc2c(c1)C(=O)/C(=C/c1c(-c3nc(C(C)C)no3)n(CCN3CCN(C)CC3)c3ccc(OC)cc13)O2 [Compound 621, 1-[(2Z)-2-({5-methoxy-2-[3-(1-methylethyl)-1,2,4-oxadiazol-5-yl]-1-[2-(4-methylpiperazin-1-yl)ethyl]-1H-indol-3-yl}methylidene)-3-oxo-2,3-dihydro-1-benzofuran-5-yl]-3-methylurea]
8.10	7.41	7.02	–	CNC(=O)Nc1ccc2c(c1)C(=O)/C(=C/c1c(C(=O)NC(C)(C)CO)[nH]c3ccc(OC)cc13)O2 [Compound 622, N-(2-hydroxy-1,1-dimethylethyl)-5-methoxy-3-[(Z)-{5-[(methylcarbamoyl)amino]-3-oxo-1-benzofuran-2(3H)-ylidene}methyl]-1H-indole-2-carboxamide]
8.68	7.64	7.24	–	CNC(=O)Nc1ccc2c(c1)C(=O)/C(=C/c1c(-c3ccc(CN(C)C)cc3)[nH]c3ccc(OC)cc13)O2 [Compound 624, 1-{(2Z)-2-[(2-{4-[(dimethylamino)methyl]phenyl}-5-methoxy-1H-indol-3-yl)methylidene]-3-oxo-2,3-dihydro-1-benzofuran-5-yl}-3-methylurea]
9.70	8.33	9.00	–	CNC(=O)Nc1ccc2c(c1)C(=O)/C(=C/c1c(-c3c(C)n[nH]c3C)[nH]c3ccc(OC)cc13)O2 [Compound 625, 1-[(2Z)-2-{[2-(3,5-dimethyl-1H-pyrazol-4-yl)-5-methoxy-1H-indol-3-yl]methylidene}-3-oxo-2,3-dihydro-1-benzofuran-5-yl]-3-methylurea]
8.89	7.59	7.30	–	CNC(=O)Nc1ccc2c(c1)C(=O)/C(=C/c1c(-c3cccc(CN(C)C)c3)[nH]c3ccc(OC)cc13)O2 [Compound 629, 1-{(2Z)-2-[(2-{3-[(dimethylamino)methyl]phenyl}-5-methoxy-1H-indol-3-yl)methylidene]-3-oxo-2,3-dihydro-1-benzofuran-5-yl}-3-methylurea]
8.94	6.80	6.70	–	CNC(=O)Nc1ccc2c(c1)C(=O)/C(=C/c1c(-c3ccc(CN(C)C)cc3)n(CCN3CCN(C)CC3)c3ccc(OC)cc13)O2 [Compound 630, 1-{(2Z)-2-[(2-{4-[(dimethylamino)methyl]phenyl}-5-methoxy-1-[2-(4-methylpiperazin-1-yl)ethyl]-1H-indol-3-yl)methylidene]-3-oxo-2,3-dihydro-1-benzofuran-5-yl}-3-methylurea]
8.30	7.26	8.70	–	CNC(=O)Nc1ccc2c(c1)C(=O)/C(=C/c1c(C(C)(C)C)[nH]c3ccc(OC)cc13)O2 [Compound 631, 1-{(2Z)-2-[(2-tert-butyl-5-methoxy-1H-indol-3-yl)methylidene]-3-oxo-2,3-dihydro-1-benzofuran-5-yl}-3-methylurea]
8.72	–	7.31	6.61	COc1ccc2c(c1)c(/C=C1\Oc3ccc(NC(=O)Nc4cccnc4)cc3C1=O)c(C)n2CCN1CCN(C)CC1 [Compound 632, 1-[(2Z)-2-({5-methoxy-2-methyl-1-[2-(4-methylpiperazin-1-yl)ethyl]-1H-indol-3-yl}methylidene)-3-oxo-2,3-dihydro-1-benzofuran-5-yl]-3-pyridin-3-ylurea]
8.41	5.72	6.65	–	COc1ccc2c(c1)c(/C=C1\Oc3ccc(NC(=O)Nc4ccc(N(C)C)cc4)cc3C1=O)c(C)n2CCN1CCN(C)CC1 [Compound 633, 1-[4-(dimethylamino)phenyl]-3-[(2Z)-2-({5-methoxy-2-methyl-1-[2-(4-methylpiperazin-1-yl)ethyl]-1H-indol-3-yl}methylidene)-3-oxo-2,3-dihydro-1-benzofuran-5-yl]urea]
8.68	7.78	7.72	–	CNC(=O)Nc1ccc2c(c1)C(=O)/C(=C/c1c(-c3c(C)nn(C)c3C)n(CCCC#N)c3ccc(OC)cc13)O2 [Compound 634, 1-[(2Z)-2-{[1-(3-cyanopropyl)-5-methoxy-2-(1,3,5-trimethyl-1H-pyrazol-4-yl)-1H-indol-3-yl]methylene}-3-oxo-2,3-dihydro-1-benzofuran-5-yl]-3-methylurea]
5.70	–	6.17	–	CC(C)Oc1ccc(-c2c(C=C3Oc4cc(O)cc(O)c4C3=O)c3ccccc3n2C)cc1 [Example 261, 4,6-dihydroxy-2-{[2-(4-isopropoxyphenyl)-1-methyl-1H-indol-3-yl]methylene}-1-benzofuran-3(2H)-one]
< 5.00	–	6.38	–	N#Cc1cccc2c1c(C=C1Oc3cc(O)cc(O)c3C1=O)cn2CCN1CCOCC1 [Example 262, 3-[(4,6-dihydroxy-3-oxo-1-benzofuran-2(3H)-ylidene)methyl]-1-(2-morpholin-4-ylethyl)-1H-indole-4-carbonitrile]
5.77	–	6.59	–	N#Cc1cccc2c1c(C=C1Oc3cc(O)cc(O)c3C1=O)cn2Cc1ccncc1 [Example 263, 3-[(4,6-dihydroxy-3-oxo-1-benzofuran-2(3H)-ylidene)methyl]-1-(pyridin-4-ylmethyl)-1H-indole-4-carbonitrile]
5.41	–	5.77	–	N#CCCCn1cc(C=C2Oc3cc(O)cc(O)c3C2=O)c2c(C#N)cccc21 [Example 264, 1-(3-cyanopropyl)-3-[(4,6-dihydroxy-3-oxo-1-benzofuran-2(3H)-ylidene)methyl]-1H-indole-4-carbonitrile]
< 5.00	–	5.89	–	CN(C)CCn1cc(C=C2Oc3cc(O)cc(O)c3C2=O)c2c(C#N)cccc21 [Example 265, 3-[(4,6-dihydroxy-3-oxo-1-benzofuran-2(3H)-ylidene)methyl]-1-[2-(dimethylamino)ethyl]-1H-indole-4-carbonitrile]
6.54	–	6.09	–	COCCn1cc(C=C2Oc3cc(O)cc(O)c3C2=O)c2c(C#N)cccc21 [Example 266, 3-[(4,6-dihydroxy-3-oxo-1-benzofuran-2(3H)-ylidene)methyl]-1-(2-methoxyethyl)-1H-indole-4-carbonitrile]
5.69	–	7.07	–	COC(=O)c1cccc2c1c(C=C1Oc3cc(O)cc(O)c3C1=O)cn2C [Example 267, methyl 3-[(4,6-dihydroxy-3-oxo-1-benzofuran-2(3H)-ylidene)methyl]-1-methyl-1H-indole-4-carboxylate]
< 5.00	–	< 4.70	–	O=C1/C(=C/c2c(-c3ccc4ccccc4c3)[nH]c3ccccc23)Sc2ccc(Cl)cc21 [Example 285, (2Z)-5-chloro-2-{[2-(2-naphthyl)-1H-indol-3-yl]methylene}-1-benzothiophen-3(2H)-one]
5.98	–	7.07	–	COc1ccc(-c2cccc3c2c(/C=C2\Oc4cc(O)cc(O)c4C2=O)cn3C)cn1 [Example 369, (2Z)-4,6-Dihydroxy-2-{[4-(6-methoxypyridin-3-yl)-1-methyl-1H-indol-3-yl]methylene}-1-benzofuran-3(2H)-one]
–	< 5.00	< 4.70	–	CNC(=O)Nc1ccc2c(c1)O/C(=C\c1cn(CCCN(C)C)c3ccc(OC)cc13)C2=O [Example 406, 1-(2Z)-[2-({1-[3-(Dimethylamino)propyl]-5-methoxy-1H-indol-3-yl}methylene)-3-oxo-2,3-dihydro-1-benzofuran-6-yl]-3-methyl urea]
6.18	–	< 4.70	–	COc1ccc2c(c1)c(/C=C1\Oc3c(ccc(O)c3C)C1=O)c(C)n2CCCN(C)C [Example 450, (2Z)-2-({1-[3-(Dimethylamino)propyl]-5-methoxy-2-methyl-1H-indol-3-yl}methylene)-6-hydroxy-7-methyl-1-benzofuran-3(2H)-one]

SMILES	pIC50 [1]	pIC50 ([2]; PI3Kγ Avg. IC50)	pIC50 [3]	pIC50 ([2]; read-out: PI3Kγ Avg. IC50)
CNC(=O)Nc1ccc2c(c1)C(=O)/C(=C/c1c(-c3c(C)noc3C)n(CCN3CCN(C)CC3)c3ccc(OC)cc13)O2 [Compound 623, 1-[(2Z)-2-({2-(3,5-dimethylisoxazol-4-yl)-5-methoxy-1-[2-(4-methylpiperazin-1-yl)ethyl]-1H-indol-3-yl}methylidene)-3-oxo-2,3-dihydro-1-benzofuran-5-yl]-3-methylurea]	8.07	6.53	7.22	–
CNC(=O)Nc1ccc2c(c1)C(=O)/C(=C/c1c(-c3nc(C4CC4)no3)n(CCN3CCN(C)CC3)c3ccc(OC)cc13)O2 [Compound 626, 1-[(2Z)-2-({2-(3-cyclopropyl-1,2,4-oxadiazol-5-yl)-5-methoxy-1-[2-(4-methylpiperazin-1-yl)ethyl]-1H-indol-3-yl}methylidene)-3-oxo-2,3-dihydro-1-benzofuran-5-yl]-3-methylurea]	8.52	6.33	7.18	–
CNC(=O)Nc1ccc2c(c1)C(=O)/C(=C/c1c(C#N)n(CCN3CCN(C)CC3)c3ccc(OC)cc13)O2 [Compound 628, 1-[(2Z)-2-({2-cyano-5-methoxy-1-[2-(4-methylpiperazin-1-yl)ethyl]-1H-indol-3-yl}methylidene)-3-oxo-2,3-dihydro-1-benzofuran-5-yl]-3-methylurea]	7.96	5.56	6.82	–
